Consider 20 molecules from patent US8618095B2 (Rigel Pharmaceuticals, Inc., priority 2010, dated 2013).

Structures are written as SMILES. Where a name gives a salt, the structure may show the parent alone.

The first test relates to Human mast cells (CHMC). The test can be described thus: LD Tryptase release assay in CHMC (mast cell activation induced by FcγR cross-linking). In kind it is cell-based. The note with it: Homo sapiens, Mast cell, anti-IgG stimulation, activity of tryptase released upon degranulation. The method, then:
Compounds were assayed for inhibition of mast cell activation induced by FcγR cross-linking by measuring the activity of tryptase released upon degranulation as follows:
Human mast cells were cultured and differentiated from […] progenitor cell as described in U.S. Patent Publication No. 2005-234049, incorporated herein by reference. For example, 65 μL of various concentrations of the compound to be assayed were prepared in MT (137 mM NaCl, 2.7 mM KCl, 1.8 mM CaCl2, 1.0 mM MgCl2, 5.6 mM Glucose, 20 mM Hepes (pH 7.4), 0.1% Bovine Serum Albumin, (Sigma A4503)) containing 2% MeOH and 1% DMSO, or control buffer were added to duplicate 96-well V-bottom plates. Pelleted and re-suspended (in warm MT) CHMC cells (65 μL) were added to each 96-well plate, mixed and incubated for 1 hour at 37° C. 25 μl of 6× anti-IgG Rabbit anti-human IgG, Affinity purified (Bethyl Laboratories Cat No. A80-105A3) final concentration 1 μg/mL, was added to the test wells. MT (25 μL) was added to control wells. After a 60-minute incubation at 37° C., cells and cell debris were pelleted by centrifugation at 1000 rpm for 10 min and tryptase and leukotriene C4 levels were measured.
To measure tryptase levels, 25 μL of supernatant from each well was transferred to a fresh 96-well black bottom plate, to which 100 μL of fresh tryptase substrate solution [(Z-Ala-Lys-Arg-AMC2TFA; Enzyme Systems Products, #AMC-246)] 1:2000 in tryptase assay buffer [0.1 M Hepes (pH 7.5), 10% w/v Glycerol, 10 μM Heparin (Sigma H-4898) 0.01% NaN3] was added. After 30 minute incubation at room temperature, the optical density of the plates is measured at 355 nm/460 nm on a spectrophotometric plate reader. Table 1 provides the IC50 values.
Compounds of the disclosure were assayed for their ability to inhibit mast cell activation induced by FcγR cross-linking by measuring the activity of tryptase released upon degranulation. The IC50 values for the LD Tryptase assay are presented in Table 2, in which “0” is >100 μM; “A” is 1-100 μM; “B” is 0.5-1 μM; “C” is 0.1-0.5 μM; and “D” is less than 0.1 μM: […]
With `C[C@H]1CN(c2ccc(Nc3ncc(F)c(Nc4ccc5c(n4)NC(=O)CO5)n3)cn2)[C@@H](C)CO1` (racemic) [Compound 104, rac-N4-(3,4-dihydro-3-oxo-2H-pyrido[3,2-b][1,4]oxazin-6-yl)-N2-[6-(2,5-dimethylmorpholino)pyridin-3-yl]-5-fluoro-2,4-pyrimidinediamine], the 50% inhibitory concentration (IC50) is 100 to 500 nM.

In the case of `C[C@H]1CN(c2ccc(Nc3ncc(F)c(Nc4ccc5c(n4)NC(=O)C(C)(C)O5)n3)cn2)[C@@H](C)CO1` (racemic) [Compound 105, rac-N4-(2,2-dimethyl-3,4-dihydro-3-oxo-2H-pyrido[3,2-b][1,4]oxazin-6-yl)-5-N2-[6-(2,5-dimethylmorpholino)pyridin-3-yl]-5-fluoro-2,4-pyrimidinediamine], the IC50 was in the range of 100 to 500 nM. On the same count and under the same terms, the figure for `CN(C)C[C@@H]1CN(c2ccc(Nc3ncc(F)c(Nc4ccc5c(n4)NC(=O)CO5)n3)cc2)CCO1` (racemic) [Compound 121, rac-N4-(3,4-dihydro-3-oxo-2H-pyrido[3,2-b][1,4]oxazin-6-yl)-N2-[4-((2-dimethylaminomethyl)morpholino)phenyl]-5-fluoro-2,4-pyrimidinediamine] is below 100 nM; for `CCOCC1CN(c2ccc(Nc3ncc(F)c(Nc4ccc5c(n4)NC(=O)CO5)n3)cc2)CCO1` (stereo in doubt) [Compound 41, N4-(3,4-dihydro-3-oxo-2H-pyrido[3,2-b][1,4]oxazin-6-yl)-5-fluoro-N2-[4-(((2S)-2-ethoxymethyl)morpholino)phenyl]-2,4-pyrimidinediamine] it is 100 to 500 nM; for `CCOCC1CN(c2ccc(Nc3ncc(F)c(Nc4ccc5c(n4)NC(=O)C(C)(C)O5)n3)cc2)CCO1` (stereo in doubt) [Compound 42, N4-(2,2-dimethyl-3,4-dihydro-3-oxo-2H-pyrido[3,2-b][1,4]oxazin-6-yl)-5-fluoro-N2-[4-(((2S)-2-ethoxymethyl)morpholino)phenyl]-2,4-pyrimidinediamine] it is 100 to 500 nM.

On to `CC1(C)Oc2ccc(Nc3nc(Nc4ccc(N5CCC(O)C5)nc4)ncc3F)nc2NC1=O` (stereo in doubt) [Compound 55, N4-(2,2-dimethyl-3,4-dihydro-3-oxo-2H-pyrido[3,2-b][1,4]oxazin-6-yl)-5-fluoro-N2-[6-((3R)-3-hydroxypyrrolidin-1-yl)pyridin-3-yl]-2,4-pyrimidinediamine], for which the IC50 was below 100 nM. Take `COC1CCN(c2ccc(Nc3ncc(F)c(Nc4ccc5c(n4)NC(=O)C(C)(C)O5)n3)cn2)C1` (stereo in doubt) [Compound 56, N4-(2,2-dimethyl-3,4-dihydro-3-oxo-2H-pyrido[3,2-b][1,4]oxazin-6-yl)-5-fluoro-N2-[6-((3R)-3-methoxypyrrolidin-1-yl)pyridin-3-yl]-2,4-pyrimidinediamine]: the IC50 was in the range of 100 to 500 nM. `O=C1COc2ccc(Nc3nc(Nc4ccc(N5CCO[C@H](CCO)C5)cc4)ncc3F)nc2N1` (stereo in doubt) [Compound 125, N4-(3,4-dihydro-3-oxo-2H-pyrido[3,2-b][1,4]oxazin-6-yl)-5-fluoro-N2-[4-((2-hydroxyethyl)morpholino)phenyl]-2,4-pyrimidinediamine]: the concentration for half-maximal inhibition (IC50) is below 100 nM.

In the case of `CC1(C)Oc2ccc(Nc3nc(Nc4ccc(N5CCO[C@H](CCO)C5)cc4)ncc3F)nc2NC1=O` (stereo in doubt) [Compound 126, N4-(2,2-dimethyl-3,4-dihydro-3-oxo-2H-pyrido[3,2-b][1,4]oxazin-6-yl)-5-fluoro-N2-[4-((2-hydroxyethyl)morpholino)phenyl]-2,4-pyrimidinediamine], the half-inhibitory concentration (IC50) was in the range of 100 to 500 nM. With `CC1(C)Oc2ccc(Nc3nc(Nc4ccc(N5CCOCC5)cc4)ncc3F)nc2NC1=O` [Compound 1, N4-(2,2-dimethyl-3,4-dihydro-3-oxo-2H-pyrido[3,2-b][1,4]oxazin-6-yl)-5-fluoro-N2-(4-morpholinophenyl)-2,4-pyrimidinediamine], the IC50 is below 100 nM. On the same count and under the same terms, the figure for `O=C1COc2ccc(Nc3nc(Nc4ccc(N5CCOCC5)nc4)ncc3F)nc2N1` [Compound 5, N4-(3,4-dihydro-3-oxo-2H-pyrido[3,2-b][1,4]oxazin-6-yl)-5-fluoro-N2-[6-morpholinopyridin-3-yl]-2,4-pyrimidinediamine] is 100 to 500 nM; for `C[C@@H]1CN(c2ccc(Nc3ncc(F)c(Nc4ccc5c(n4)NC(=O)CO5)n3)cn2)CCO1` [Compound 6, N4-(3,4-dihydro-3-oxo-2H-pyrido[3,2-b][1,4]oxazin-6-yl)-5-fluoro-N2-[6-((2R)-2-methylmorpholino)pyridin-3-yl]-2,4-pyrimidinediamine] it is below 100 nM. `C[C@@H]1CN(c2ccc(Nc3ncc(F)c(Nc4ccc5c(n4)NC(=O)C(C)(C)O5)n3)cn2)CCO1` [Compound 7, N4-(2,2-dimethyl-3,4-dihydro-3-oxo-2H-pyrido[3,2-b][1,4]oxazin-6-yl)-5-fluoro-N2-1-2,4-pyrimidinediamine]: the concentration for half-maximal inhibition (IC50) lay in the range of 100 to 500 nM.

Consider `CC1(C)CN(c2ccc(Nc3ncc(F)c(Nc4ccc5c(n4)NC(=O)C(C)(C)O5)n3)cn2)CCO1` [Compound 8, N4-(2,2-dimethyl-3,4-dihydro-3-oxo-2H-pyrido[3,2-b][1,4]oxazin-6-yl)-5-fluoro-N2-[6-(2,2-dimethylmorpholino)pyridin-3-yl]-2,4-pyrimidinediamine], for which the IC50 fell in the range of 100 to 500 nM. Still for that read-out and setting: the figure for `CC1(C)CN(c2ccc(Nc3ncc(F)c(Nc4ccc5c(n4)NC(=O)CO5)n3)cn2)CCO1` [Compound 9, N4-(3,4-dihydro-3-oxo-2H-pyrido[3,2-b][1,4]oxazin-6-yl)-5-fluoro-N2-[6-(2,2-dimethylmorpholino)pyridin-3-yl]-2,4-pyrimidinediamine] is 100 to 500 nM; for `CC1(C)Oc2ccc(Nc3nc(Nc4cnc(N5CCOCC5)c(F)c4)ncc3F)nc2NC1=O` [Compound 10, N4-(2,2-dimethyl-3,4-dihydro-3-oxo-2H-pyrido[3,2-b][1,4]oxazin-6-yl)-5-fluoro-N2-[5-fluoro-6-morpholinopyridin-3-yl]-2,4-pyrimidinediamine] it is 100 to 500 nM. For the molecule `Cc1cc(Nc2ncc(F)c(Nc3ccc4c(n3)NC(=O)CO4)n2)cnc1N1CCOCC1` [Compound 11, N4-(3,4-dihydro-3-oxo-2H-pyrido[3,2-b][1,4]oxazin-6-yl)-5-fluoro-N2-[5-methyl-6-morpholinopyridin-3-yl]-2,4-pyrimidinediamine], the concentration for half-maximal inhibition (IC50) is below 100 nM.

The same test, now with this note: Mast cell, anti-IgG stimulation, activity of tryptase released upon degranulation.
`CC1(C)Oc2ccc(Nc3nc(Nc4ccc(N5CCOCC5)cc4)ncc3F)nc2N(COP(=O)(O)O)C1=O` [Compound 2, N4-(2,2-dimethyl-3,4-dihydro-4-[(dihydrogenphosphonoxy)methyl]-3-oxo-2H-pyrido[3,2-b][1,4]oxazin-6-yl)-5-fluoro-N2-(4-morpholinophenyl)-2,4-pyrimidinediamine]: the IC50 fell in the range of 1000 to 100000 nM.

Staying with this test, now noted: anti-IgG stimulation, activity of tryptase released upon degranulation.
Turning to `CC1(C)Oc2ccc(Nc3nc(Nc4ccc(N5CCOCC5)nc4)ncc3F)nc2NC1=O` [Compound 3, N4-(2,2-dimethyl-3,4-dihydro-3-oxo-2H-pyrido[3,2-b][1,4]oxazin-6-yl)-5-fluoro-N2-[6-morpholinopyridin-3-yl]-2,4-pyrimidinediamine], the IC50 is below 100 nM. `CC1(C)Oc2ccc(Nc3nc(Nc4ccc(N5CCOCC5)nc4)ncc3F)nc2N(COP(=O)(O)O)C1=O` [Compound 4, N4-(2,2-dimethyl-3,4-dihydro-4-[(dihydrogenphosphonoxy)methyl]-3-oxo-2H-pyrido[3,2-b][1,4]oxazin-6-yl)-5-fluoro-N2-(6-morpholinopyridin-3-yl)-2,4-pyrimidinediamine disodium salt]: the IC50 lay in the range of 1000 to 100000 nM.
